Article PMC5218480 (PLoS ONE, 2017)

Tested on: MV-4-11 cells
Assay: Gene expression microarray analysis (Affymetrix PrimeView) and GSEA
Assay type: cell-based, human
Design: RFU PODN (11730768_x_at) / Fold change /veh PODN (11730768_x_at) / RFU LINC00158 (11744669_a_at) / Fold change /veh LINC00158 (11744669_a_at) / RFU DUSP10 (11751237_a_at) / Fold change /veh DUSP10 (11751237_a_at) / RFU ID3 (11757404_x_at) / Fold change /veh ID3 (11757404_x_at) / RFU PLEKHG5 (11737974_s_at) / Fold change /veh PLEKHG5 (11737974_s_at) / RFU LRRC4B (11730491_at) / Fold change /veh LRRC4B (11730491_at) / RFU GIMAP4 (11747438_a_at) / Fold change /veh GIMAP4 (11747438_a_at) / RFU KRT8 (11758183_x_at) / Fold change /veh KRT8 (11758183_x_at) / RFU CNN1 (11734310_a_at) / Fold change /veh CNN1 (11734310_a_at) / RFU VPS37D (11726825_at) / Fold change /veh VPS37D (11726825_at) / RFU C10orf10 (11716522_x_at) / Fold change /veh C10orf10 (11716522_x_at) / RFU KIR2DL2 /// KIR2DL4 /// KIR2DL5A /// KIR2DL5B /// KIR2DS1 /// KIR2DS2 /// KIR2DS3 /// KIR2DS4 /// KIR3DL3 /// KIR3DL3 /// KIR3DS1 (11738374_at) / Fold change /veh KIR2DL2 /// KIR2DL4 /// KIR2DL5A /// KIR2DL5B /// KIR2DS1 /// KIR2DS2 /// KIR2DS3 /// KIR2DS4 /// KIR3DL3 /// KIR3DL3 /// KIR3DS1 (11738374_at) / RFU C1QL1 (11718748_at) / Fold change /veh C1QL1 (11718748_at) / RFU TMPRSS4 (11747572_a_at) / Fold change /veh TMPRSS4 (11747572_a_at) / RFU HAMP (11756126_x_at) / Fold change /veh HAMP (11756126_x_at) / RFU RNFT2 (11725882_a_at) / Fold change /veh RNFT2 (11725882_a_at) / RFU NR4A2 (11747474_a_at) / Fold change /veh NR4A2 (11747474_a_at) / RFU ABCC12 (11746883_a_at) / Fold change /veh ABCC12 (11746883_a_at) / RFU TMEM136 (11760407_x_at) / Fold change /veh TMEM136 (11760407_x_at) / RFU CLDN22 /// WWC2 (11732394_at) / Fold change /veh CLDN22 /// WWC2 (11732394_at) / RFU HLA-DPB1 (11760878_x_at) / Fold change /veh HLA-DPB1 (11760878_x_at) / RFU SPINT1 (11716480_a_at) / Fold change /veh SPINT1 (11716480_a_at) / RFU GAP43 (11754022_s_at) / Fold change /veh GAP43 (11754022_s_at) / RFU A4GNT (11735810_at) / Fold change /veh A4GNT (11735810_at) / RFU PRB3 (11715151_x_at) / Fold change /veh PRB3 (11715151_x_at) / RFU TUBB4B (11761932_at) / Fold change /veh TUBB4B (11761932_at) / RFU CAPN14 (11732068_a_at) / Fold change /veh CAPN14 (11732068_a_at) / RFU TMCC2 (11721928_a_at) / Fold change /veh TMCC2 (11721928_a_at) / RFU IRGQ (11745062_a_at) / Fold change /veh IRGQ (11745062_a_at) / RFU FAM174B (11720279_a_at) / Fold change /veh FAM174B (11720279_a_at) / RFU TMPRSS4 (11748680_a_at) / Fold change /veh TMPRSS4 (11748680_a_at) / RFU FAM212B (11763350_a_at) / Fold change /veh FAM212B (11763350_a_at) / RFU PLEKHG5 (11743358_a_at) / Fold change /veh PLEKHG5 (11743358_a_at) / RFU ZSCAN30 (11745921_a_at) / Fold change /veh ZSCAN30 (11745921_a_at) / RFU CMKLR1 (11741424_a_at) / Fold change /veh CMKLR1 (11741424_a_at) / RFU LOC101060620 /// MAPK8IP1 (11723275_at) / Fold change /veh LOC101060620 /// MAPK8IP1 (11723275_at) / RFU SPTSSB (11747773_x_at) / Fold change /veh SPTSSB (11747773_x_at) / RFU PRSS12 (11739890_at) / Fold change /veh PRSS12 (11739890_at) / RFU BIN1 (11741810_x_at) / Fold change /veh BIN1 (11741810_x_at) / RFU WNT11 (11732464_a_at) / Fold change /veh WNT11 (11732464_a_at) / RFU C10orf10 (11716521_a_at) / Fold change /veh C10orf10 (11716521_a_at) / RFU C5orf56 (11738089_at) / Fold change /veh C5orf56 (11738089_at) / RFU CYB561 (11721691_x_at) / Fold change /veh CYB561 (11721691_x_at) / RFU ANKRD19P (11752326_a_at) / Fold change /veh ANKRD19P (11752326_a_at) / RFU OR2T12 /// OR2T33 /// OR2T8 (11738714_s_at) / Fold change /veh OR2T12 /// OR2T33 /// OR2T8 (11738714_s_at) / RFU VCAN (11748164_a_at) / Fold change /veh VCAN (11748164_a_at) / RFU JSRP1 (11732532_at) / Fold change /veh JSRP1 (11732532_at) / RFU KRTAP10-11 (11738290_x_at) / Fold change /veh KRTAP10-11 (11738290_x_at) / RFU MYO3A (11730013_a_at) / Fold change /veh MYO3A (11730013_a_at) / RFU EBF3 (11725865_a_at) / Fold change /veh EBF3 (11725865_a_at) / RFU CAMK2N1 (11719241_x_at) / Fold change /veh CAMK2N1 (11719241_x_at) / RFU C5orf56 (11738088_a_at) / Fold change /veh C5orf56 (11738088_a_at) / RFU OLFML3 (11715873_a_at) / Fold change /veh OLFML3 (11715873_a_at) / RFU LOC100653217 /// NTM (11731650_a_at) / Fold change /veh LOC100653217 /// NTM (11731650_a_at) / RFU MAPK11 (11762145_a_at) / Fold change /veh MAPK11 (11762145_a_at) / RFU FIZ1 (11724087_x_at) / Fold change /veh FIZ1 (11724087_x_at) / RFU OASL (11726364_x_at) / Fold change /veh OASL (11726364_x_at) / RFU SOX15 (11748057_x_at) / Fold change /veh SOX15 (11748057_x_at) / RFU CD79A (11719716_a_at) / Fold change /veh CD79A (11719716_a_at) / RFU HIST1H1D (11736915_at) / Fold change /veh HIST1H1D (11736915_at) / RFU CASKIN2 (11723855_a_at) / Fold change /veh CASKIN2 (11723855_a_at) / RFU LOC730098 (11760151_x_at) / Fold change /veh LOC730098 (11760151_x_at) / RFU OR4N2 (11742367_at) / Fold change /veh OR4N2 (11742367_at) / RFU PRRT2 (11749266_a_at) / Fold change /veh PRRT2 (11749266_a_at) / RFU SNX32 (11753110_a_at) / Fold change /veh SNX32 (11753110_a_at) / RFU CDHR5 (11726645_a_at) / Fold change /veh CDHR5 (11726645_a_at) / RFU RCAN1 (11760418_a_at) / Fold change /veh RCAN1 (11760418_a_at) / RFU FAM167A (11723789_a_at) / Fold change /veh FAM167A (11723789_a_at) / RFU FAM26E (11764081_at) / Fold change /veh FAM26E (11764081_at) / RFU ISYNA1 (11749810_s_at) / Fold change /veh ISYNA1 (11749810_s_at) / RFU ACY1 (11761880_at) / Fold change /veh ACY1 (11761880_at) / RFU 11764098_at / Fold change /veh 11764098_at / RFU SAMD14 (11745864_x_at) / Fold change /veh SAMD14 (11745864_x_at) / RFU NPB (11741838_a_at) / Fold change /veh NPB (11741838_a_at) / RFU TMPRSS6 (11731388_a_at) / Fold change /veh TMPRSS6 (11731388_a_at) / RFU KRTAP10-2 (11738614_at) / Fold change /veh KRTAP10-2 (11738614_at) / RFU ARHGAP8 /// PRR5-ARHGAP8 (11727945_x_at) / Fold change /veh ARHGAP8 /// PRR5-ARHGAP8 (11727945_x_at) / RFU KRTAP5-7 /// NADSYN1 (11734609_at) / Fold change /veh KRTAP5-7 /// NADSYN1 (11734609_at) / RFU RASL12 (11751679_a_at) / Fold change /veh RASL12 (11751679_a_at) / RFU CDKN2B (11736163_a_at) / Fold change /veh CDKN2B (11736163_a_at) / RFU PRF1 (11729649_at) / Fold change /veh PRF1 (11729649_at) / RFU, ZNF638 /// ZNF638-IT1 / Fold change vs veh, ZNF638 /// ZNF638-IT1 / RFU, PANK3 / Fold change vs veh, PANK3 / RFU, SH3YL1 / Fold change vs veh, SH3YL1 / RFU, ZEB2 / Fold change vs veh, ZEB2 / RFU, NRIP1 / Fold change vs veh, NRIP1 / RFU, PTTG1IP / Fold change vs veh, PTTG1IP / RFU, CAPN2 / Fold change vs veh, CAPN2 / RFU, MED14 / Fold change vs veh, MED14 / RFU, SNORA58 / Fold change vs veh, SNORA58 / RFU, C1orf63 / Fold change vs veh, C1orf63 / RFU, LRRFIP1 / Fold change vs veh, LRRFIP1 / RFU, NDUFAF7 / Fold change vs veh, NDUFAF7 / RFU, SLC12A2 / Fold change vs veh, SLC12A2 / RFU, IBTK / Fold change vs veh, IBTK / RFU, ESF1 / Fold change vs veh, ESF1 / Fold change vs veh, TMEM50B / RFU, TAOK1 / Fold change vs veh, TAOK1 / RFU, ACBD3 / Fold change vs veh, ACBD3 / RFU, TMA16 / Fold change vs veh, TMA16 / RFU, RWDD3 / Fold change vs veh, RWDD3 / RFU, BCAT1 / Fold change vs veh, BCAT1 / RFU, EDEM3 / Fold change vs veh, EDEM3 / RFU, TMEM33 / Fold change vs veh, TMEM33 / RFU, WDR75 / Fold change vs veh, WDR75 / RFU, AHCTF1 / Fold change vs veh, AHCTF1 / RFU, TFRC / Fold change vs veh, TFRC / RFU, ZDHHC17 / Fold change vs veh, ZDHHC17 / RFU, NOM1 / Fold change vs veh, NOM1 / RFU, ARL8B / Fold change vs veh, ARL8B / RFU, ZBTB11 / Fold change vs veh, ZBTB11 / RFU, TAMM41 / Fold change vs veh, TAMM41 / RFU, KIAA1704 /// LOC100996395 / Fold change vs veh, KIAA1704 /// LOC100996395 / RFU, ING1 / Fold change vs veh, ING1 / RFU, TRMT61B / Fold change vs veh, TRMT61B / RFU, FUBP3 / Fold change vs veh, FUBP3 / RFU, TP53 / Fold change vs veh, TP53 / RFU, TNKS2 / Fold change vs veh, TNKS2 / RFU, ZFP14 / Fold change vs veh, ZFP14 / RFU, ACTR2 / Fold change vs veh, ACTR2 / RFU, PPP3R1 / Fold change vs veh, PPP3R1 / RFU, PIK3R1 / Fold change vs veh, PIK3R1 / RFU, HNRNPA1 / Fold change vs veh, HNRNPA1 / RFU, RNF170 / Fold change vs veh, RNF170 / RFU, ZNF28 / Fold change vs veh, ZNF28 / RFU, RNGTT / Fold change vs veh, RNGTT / RFU, OGT / Fold change vs veh, OGT / RFU, BRD1 / Fold change vs veh, BRD1 / RFU, MARS / Fold change vs veh, MARS / RFU, ZNF655 / Fold change vs veh, ZNF655 / RFU, FAHD1 / Fold change vs veh, FAHD1 / RFU, BDP1 / Fold change vs veh, BDP1 / RFU, LRRCC1 / Fold change vs veh, LRRCC1 / RFU, ARID1A / Fold change vs veh, ARID1A / RFU, ZNF146 / Fold change vs veh, ZNF146 / RFU, ZNF330 / Fold change vs veh, ZNF330 / RFU, GPN3 / Fold change vs veh, GPN3 / RFU, C9orf123 / Fold change vs veh, C9orf123 / RFU, N4BP2L2 / Fold change vs veh, N4BP2L2 / RFU, ARFIP1 / Fold change vs veh, ARFIP1 / RFU, FAM179B / Fold change vs veh, FAM179B / RFU, BCL10 / Fold change vs veh, BCL10 / RFU, UHRF1BP1L / Fold change vs veh, UHRF1BP1L / RFU, BET1 / Fold change vs veh, BET1 / RFU, CNOT2 / Fold change vs veh, CNOT2 / RFU, ZNF268 / Fold change vs veh, ZNF268 / Fold change vs veh, ZNF507 / RFU, DGCR2 / Fold change vs veh, DGCR2 / RFU, WDSUB1 / Fold change vs veh, WDSUB1 / Fold change vs veh, HSP90B1 /// MIR3652 / RFU, ADSS / Fold change vs veh, ADSS / RFU, GK / Fold change vs veh, GK / RFU, ZNF148 / Fold change vs veh, ZNF148 / RFU, TAF9 / Fold change vs veh, TAF9 / RFU, SLC1A5 / Fold change vs veh, SLC1A5 / RFU, SLMO2 / Fold change vs veh, SLMO2 / RFU, ABCC4 / Fold change vs veh, ABCC4 / RFU, LOC101060439 /// RAP1B / Fold change vs veh, LOC101060439 /// RAP1B / RFU, RFX7 / Fold change vs veh, RFX7 / RFU, GTPBP10 / Fold change vs veh, GTPBP10 / RFU, CNEP1R1 / Fold change vs veh, CNEP1R1 / RFU, BIVM-ERCC5 /// ERCC5 / Fold change vs veh, BIVM-ERCC5 /// ERCC5 / RFU, ILF3 / Fold change vs veh, ILF3 / RFU 11762660_at / Fold change /veh 11762660_at / RFU VCAN (11757783_s_at) / Fold change /veh VCAN (11757783_s_at) / RFU DDX43 (11728927_at) / Fold change /veh DDX43 (11728927_at) / RFU KRT8 (11758188_x_at) / Fold change /veh KRT8 (11758188_x_at) / RFU NKD1 (11759106_at) / Fold change /veh NKD1 (11759106_at) / RFU SRD5A1 (11742802_a_at) / Fold change /veh SRD5A1 (11742802_a_at) / RFU TPSAB1 /// TPSB2 (11721975_s_at) / Fold change /veh TPSAB1 /// TPSB2 (11721975_s_at) / RFU GSTM3 (11746129_a_at) / Fold change /veh GSTM3 (11746129_a_at) / RFU IL23R (11737362_x_at) / Fold change /veh IL23R (11737362_x_at) / RFU TMEM51 (11727254_a_at) / Fold change /veh TMEM51 (11727254_a_at) / RFU PIWIL2 (11732686_x_at) / Fold change /veh PIWIL2 (11732686_x_at) / RFU ORM1 (11744905_x_at) / Fold change /veh ORM1 (11744905_x_at) / RFU CCDC152 (11743942_at) / Fold change /veh CCDC152 (11743942_at) / RFU ECM1 (11717891_a_at) / Fold change /veh ECM1 (11717891_a_at) / RFU IL23R (11748794_a_at) / Fold change /veh IL23R (11748794_a_at) / RFU TNFAIP8L3 (11732012_x_at) / Fold change /veh TNFAIP8L3 (11732012_x_at) / RFU MBOAT4 (11741988_at) / Fold change /veh MBOAT4 (11741988_at) / RFU 11764193_at / Fold change /veh 11764193_at / RFU TMEM53 (11763286_at) / Fold change /veh TMEM53 (11763286_at) / RFU MAGEB2 (11727129_at) / Fold change /veh MAGEB2 (11727129_at) / RFU TMEM200A (11744735_a_at) / Fold change /veh TMEM200A (11744735_a_at) / RFU CCDC152 (11751479_a_at) / Fold change /veh CCDC152 (11751479_a_at) / RFU FAM211A (11726209_a_at) / Fold change /veh FAM211A (11726209_a_at) / RFU RGS16 (11746705_a_at) / Fold change /veh RGS16 (11746705_a_at) / RFU VCAN (11755009_s_at) / Fold change /veh VCAN (11755009_s_at) / RFU RHOB (11743442_s_at) / Fold change /veh RHOB (11743442_s_at) / RFU RGS16 (11720943_a_at) / Fold change /veh RGS16 (11720943_a_at) / RFU RGS16 (11720944_at) / Fold change /veh RGS16 (11720944_at) / RFU, VPS4B / Fold change vs veh, VPS4B / RFU, CREB1 / Fold change vs veh, CREB1 / RFU, DNAJC13 / Fold change vs veh, DNAJC13 / RFU, GNAQ / Fold change vs veh, GNAQ / RFU, CDK5R1 / Fold change vs veh, CDK5R1 / RFU, ZRANB3 / Fold change vs veh, ZRANB3 / RFU, CUL4A / Fold change vs veh, CUL4A / RFU, CCNY / Fold change vs veh, CCNY / RFU, UFL1 / Fold change vs veh, UFL1 / RFU, COG3 / Fold change vs veh, COG3 / RFU, DIAPH2 / Fold change vs veh, DIAPH2 / RFU, SKA2 / Fold change vs veh, SKA2 / RFU, AFF3 / Fold change vs veh, AFF3 / RFU, LMF1 / Fold change vs veh, LMF1 / RFU, IPO11 / Fold change vs veh, IPO11 / RFU, DFFB / Fold change vs veh, DFFB / RFU, FOXP1 / Fold change vs veh, FOXP1 / RFU, CARD8 / Fold change vs veh, CARD8 / RFU, STRN3 / Fold change vs veh, STRN3 / RFU, ADK / Fold change vs veh, ADK / RFU, RASSF2 / Fold change vs veh, RASSF2 / RFU, WIPF1 / Fold change vs veh, WIPF1 / RFU, LARP1B / Fold change vs veh, LARP1B / RFU, RASA1 / Fold change vs veh, RASA1 / RFU, RB1 / Fold change vs veh, RB1 / RFU, PPFIA1 / Fold change vs veh, PPFIA1 / RFU, MAT2A / Fold change vs veh, MAT2A / RFU, CCT5 / Fold change vs veh, CCT5 / RFU, WDR92 / Fold change vs veh, WDR92 / RFU, CUX1 / Fold change vs veh, CUX1 / RFU, TTC7A / Fold change vs veh, TTC7A / RFU, TMEM135 / Fold change vs veh, TMEM135 / RFU, DEPTOR / Fold change vs veh, DEPTOR / RFU, CPM / Fold change vs veh, CPM / RFU, DNAJB6 / Fold change vs veh, DNAJB6 / RFU, CACNA2D3 / Fold change vs veh, CACNA2D3 / RFU, DTX4 / Fold change vs veh, DTX4 / RFU, TFCP2 / Fold change vs veh, TFCP2 / RFU, GMCL1 /// GMCL1P1 / Fold change vs veh, GMCL1 /// GMCL1P1 / RFU, AEBP2 / Fold change vs veh, AEBP2 / RFU, SNHG1 /// SNORD22 /// SNORD25 /// SNORD26 /// SNORD27 /// SNORD28 /// SNORD29 /// SNORD31 / Fold change vs veh, SNHG1 /// SNORD22 /// SNORD25 /// SNORD26 /// SNORD27 /// SNORD28 /// SNORD29 /// SNORD31 / Fold change (Aza/veh), C12orf56 (ProbeSet 11735607_a_at) / Fold change (ACY-1035/veh), C12orf56 (ProbeSet 11735607_a_at) / Fold change (Aza/veh), FGFR1OP (ProbeSet 11751329_s_at) / Fold change (ACY-1035/veh), FGFR1OP (ProbeSet 11751329_s_at) / Fold change (Aza/veh), VPS36 (ProbeSet 11739960_a_at) / Fold change (ACY-1035/veh), VPS36 (ProbeSet 11739960_a_at) / RFU SYPL1 (11715823_x_at) / Fold change /veh SYPL1 (11715823_x_at) / RFU IGFBP7 (11715501_s_at) / Fold change /veh IGFBP7 (11715501_s_at) / RFU REEP3 (11722064_at) / Fold change /veh REEP3 (11722064_at) / RFU IGLL1 (11728026_x_at) / Fold change /veh IGLL1 (11728026_x_at): dose or concentration left out as unconfirmed
Settings: ProbeSet 11732277_a_at; LIST D

**Q.** With `Nc1ncn([C@@H]2O[C@H](CO)[C@@H](O)[C@H]2O)c(=O)n1` [azacitidine] as the compound, how does the “Fold change vs veh, FOXP1” value read?
**A.** 0.59
